US9408854B2, “Methods and systems for pharmacogenomic treatment of cardiovascular conditions” (ROSTAQUO S.P.A., priority 2009, dated 2016)

System: hypertensive patients
Assay: Pharmacogenomic study: change of office systolic blood pressure (DSBP5_0) after 5 weeks of rostafuroxin vs placebo, by genotype
Type: in vivo, human
Conditions: for response (average blood pressure change): individuals carrying all core SNPs; for Delta DSBP5_0: therapy vs placebo
Protocol: A pharmacogenomic study was performed to ascertain the effect of genetic variations on an individual response to rostafuroxin. The sample for the pharmacogenomic study consisted of 342 individuals that were genotyped with the Human1M array from Illumina using Human1M Duo CHIP genotyping Bead Chip according to procedure described in [Ref. 10, 11, 12]. Among the individuals, 169 were administered the placebo treatment and 173 the active drug (rostafuroxin) in the first period (5 weeks) with demographics as in [Ref 13]. In particular, patients were randomized to one of the following oral doses of rostafuroxin: 0.05, 0.15, 0.5, 1.5, or 5 mg/day for 5 weeks. Each dose had to be compared to a placebo in a crossover design.
For the above sample of individuals a genetic association analysis, was performed to associate the phenotype of the tested individuals with the SNPs detected in the individuals. The selected phenotype of interest was the blood pressure response. The SNPs selected for detection were the 1111170 SNPs on autosomal chromosomes of the individual.
The genetic analysis was performed according to a quantitative genetic association design where the phenotype of interest is a quantitative variable (QT), and the variables (factors) affecting the distribution of the phenotype of interest are SNPs, therapy (placebo, rostafuroxin) and the SNP*therapy interaction.
In particular, the quantitative phenotype selected for the statistical analyses was the difference in mmHg between the office Systolic Blood Pressure (SBP) at the end of first treatment period (SBP_5) and the office Systolic Blood Pressure at baseline after one month of run-in (SBP_0) and is herein also identified as DSBP5_0. The selected QT phenotype and other factors affecting distribution of the phenotype of interest were then analyzed according to the following quantitative trait interaction test Phenotype=SNP+therapy+SNP*therapy as illustrated in further details below.
In particular, in Table 2 the descriptive statistics of DSBP5_0 for the entire sample and for the patients treated with placebo and rostafuroxin are listed. The rather modest basal level of SBP can be explained in view of the recruitment of patients with “mild” hypertension (SBP range 140-179 mmHg), required by the inclusion of a placebo arm.
Those SNPs were further selected to identify the genotypes with the largest response to rostafuroxin compared to placebo by performing a Statistical ANOVA analysis using STATA software in placebo and rostafuroxin with DSBP5_0 as dependent variable and the candidate significant SNPs as independent variables. In particular, to select the genotypes of the interactions between two SNPs with the largest response to rostafuroxin compared to placebo, the Applicants performed an ANOVA statistics in placebo and rostafuroxin with DSBP5_0 as dependent variable and the interaction s between SNPs as independent variables. The Applicants report an example of this procedure in FIG. 5: interaction between rs8899 and rs4678. The Applicants selected the interaction between the genotype AA of rs8899 and the genotype BB of rs4678 because it presents the greatest remarkable decrement in the therapy group and not in the placebo group.
In particular, to select the genotypes with the largest response to rostafuroxin compared to placebo, the Applicants performed an ANOVA statistics (oneway) in placebo and rostafuroxin with DSBP5_0 as dependent variable and the significant SNPs as independent variables.

[1] = GWS SNP rs9361863 (LOC728360) genotype 2
[2] = GWS SNP rs9893372 (ATP2A3) genotype 3
[3] = GWS SNP rs10159569 (SH3PXD2A) genotype 1
[4] = GWS SNP rs10493940 (SLC30A7) genotype 2
[5] = GWS SNP rs10493940 (SLC30A7) genotype 3
[6] = GWS SNP rs12513375 (TTC29) genotype 3
[7] = GWS SNP rs12996186 (ARL5A) genotype 2
[8] = GWS SNP rs16877182 (THSD7A) genotype 2
[9] = GWS SNP rs16893522 (FAM46A) genotype 1
[10] = GWS SNP rs16893522 (FAM46A) genotype 2
[11] = GWS SNP rs17414954 (VCAM1) genotype 2
[12] = individuals carrying the genetic variations
[13] = interaction ADD2 rs4984 CC x TOP rs10502933 CT
[14] = interaction HSD19 rs947130 GG x NEDD4L rs4309483 AA
[15] = interaction HSD19 rs947130 GG x NKAIN3 rs4739037 GA
[16] = interaction LSS2 rs914247 AA x ADD1 rs4961 GT + TT
[17] = interaction LSS2 rs914247 AA x WNK1 rs880054 AG + GG
[18] = interaction LSS2 rs914247 GA + AA x MDR2 rs1045642 CC
[19] = interaction MDR2 rs1045642 TT x AGTR1 rs2131127 CC
[20] = interaction MDR2 rs1045642 TT x HSD18 rs10923835 AT + TT

C[C@]12CC[C@H](O)C[C@H]1CC[C@@H]1[C@@H]2CC[C@]2(C)[C@@](O)(c3ccoc3)CC[C@]12O [rostafuroxin, 17β-(3-furyl)-5β-androstane-3β,14β,17α-triol]
DSBP5_0 therapy (GWS SNP rs9361863 (LOC728360) genotype 1): −15 mmHg
DELTA delta Therapy placebo [1]: 8.833 mmHg
DSBP5_0 therapy [1]: −13.48 mmHg
DELTA delta Therapy placebo [2]: 4.434 mmHg
DSBP5_0 therapy [2]: −10.91 mmHg
DELTA delta Therapy placebo [3]: 10.63 mmHg
DSBP5_0 therapy [3]: −13.17 mmHg
DELTA delta Therapy placebo [4]: 5.95 mmHg
DSBP5_0 therapy [4]: −12.13 mmHg
DELTA delta Therapy placebo [5]: 28.95 mmHg
DSBP5_0 therapy [5]: −25 mmHg
DELTA delta Therapy placebo [6]: 15.93 mmHg
DSBP5_0 therapy [6]: −19.18 mmHg
DELTA delta Therapy placebo [7]: 17.96 mmHg
DSBP5_0 therapy [7]: −22.79 mmHg
DELTA delta Therapy placebo [8]: 18.85 mmHg
DSBP5_0 therapy [8]: −21.67 mmHg
DELTA delta Therapy placebo [9]: 27.03 mmHg
DSBP5_0 therapy [9]: −22.43 mmHg
DELTA delta Therapy placebo [10]: 2.874 mmHg
DSBP5_0 therapy [10]: −1.138 mmHg
DELTA delta Therapy placebo [11]: 7.158 mmHg
DSBP5_0 therapy [11]: −13.03 mmHg
Mean fall in blood pressure mmHg (DSBP5_0) (all never previously treated (NPT) patients on therapy (99 IDs), 5 weeks, no genotype selection): −5.831 mmHg
DSBP5_0 therapy (carriers rs914247 (LSS2) AA (CAND 1 SNP)): −17 mmHg
DSBP5_0 therapy (carriers rs2345088 TT (Illumina genotype 1), NPT patients, 5 weeks): −30.5 mmHg
DSBP5_0 therapy (carriers rs2461911 AA (Illumina genotype 1), NPT patients, 5 weeks): −20.6 mmHg
DSBP5_0 therapy (carriers rs5013093 TT (Illumina genotype 1), NPT patients, 5 weeks): −20.49 mmHg
DSBP5_0 therapy (carriers rs12513375 TT (Illumina genotype 3), NPT patients, 5 weeks): −19.18 mmHg
DSBP5_0 therapy (carriers rs16877182 C/T (Illumina genotype 2), NPT patients, 5 weeks): −21.67 mmHg
DSBP5_0 therapy (carriers rs16893522 AA (Illumina genotype 1), NPT patients, 5 weeks): −22.43 mmHg
response (average blood pressure change) (high dosages): −15 mmHg
average decrease in systolic blood pressure (high doses (1.5; 5.0 mg/day), individuals carrying the genetic variations): −12 mmHg
average decrease in nightly blood pressure [12]: ≥ 9 mmHg
average decrease in office blood pressure [12]: at least 15 mmHg
DSBP50 ROSTAFUROXIN [13]: .−19.21 mmHg
Delta Rosta_placebo [13]: 24.73 mmHg
DSBP50 ROSTAFUROXIN [14]: .−17.85 mmHg
Delta Rosta_placebo [14]: 28.15 mmHg
DSBP50 ROSTAFUROXIN [15]: .−18.18 mmHg
Delta Rosta_placebo [15]: 15.72 mmHg
DSBP50 ROSTAFUROXIN [16]: .−22.32 mmHg
Delta Rosta_placebo [16]: 27.49 mmHg
DSBP50 ROSTAFUROXIN [17]: .−16 mmHg
Delta Rosta_placebo [17]: 16.48 mmHg
DSBP50 ROSTAFUROXIN [18]: .−16.91 mmHg
Delta Rosta_placebo [18]: 12.96 mmHg
DSBP50 ROSTAFUROXIN [19]: .−16.9 mmHg
Delta Rosta_placebo [19]: 14.34 mmHg
DSBP50 ROSTAFUROXIN [20]: .−17.40 mmHg
Delta Rosta_placebo [20]: 17.30 mmHg
response (average blood pressure change) (low dosages): −23 mmHg
average decrease in systolic blood pressure (lower doses (0.05; 0.15; 0.5 mg/day), individuals carrying the genetic variations): approximately 18 mmHg
Delta DSBP5_0 (carriers rs2345088 TT (genotype 1)): 33.93, mmHg
Delta DSBP5_0 (carriers rs2461911 AA (genotype 1)): 22.82, mmHg
Delta DSBP5_0 (carriers rs5013093 TT (genotype 1)): 22.09, mmHg
Delta DSBP5_0 (carriers rs12513375 TT (genotype 3)): 15.93, mmHg
Delta DSBP5_0 (carriers rs16877182 C/T (genotype 2)): 18.85, mmHg
Delta DSBP5_0 (carriers rs16893522 AA (genotype 1)): 27.03, mmHg
tolerability and quality of life (treated individuals, trial results): good tolerability and quality of life
